Source: the supplement of paper PMC10307832

Legend:
Experiment in all cases: relative viability (nuclei count vs DMSO), 5 days (fraction); higher = more cells survive
NCI-H23 = tested on: NCI-H23
How it was run: (§1)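 After 5 days of treatment, lung cancer cells in 1536-well plates were fixed and stained in a single step (final 0.05% Triton X-100, 1% formaldehyde, 1 ug/ml Hoechst) and their nuclei counted on 4× images. Treatment had been applied by pin tool the day after seeding as one drug alone or as a fixed anchor-drug dose with five library-drug doses (not always all listed) in √10 steps. Relative viability is the nuclei count of treated wells divided by that of vehicle wells, and values are medians of duplicate plates.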

EKVX = tested on: EKVX
How it was run: as §1

NCI-H727 = tested on: NCI-H727
How it was run: as §1

NCI-H1666 = tested on: NCI-H1666
How it was run: as §1

NCI-H647 = tested on: NCI-H647
How it was run: as §1

NCI-H838 = tested on: NCI-H838
How it was run: as §1

NCI-H1437 = tested on: NCI-H1437
How it was run: as §1

SK-LU-1 = tested on: SK-LU-1
How it was run: as §1

NCI-H661 = tested on: NCI-H661
How it was run: as §1

NCI-H322M = tested on: NCI-H322M
How it was run: as §1

NCI-H358 = tested on: NCI-H358
How it was run: as §1

NCI-H460 = tested on: NCI-H460
How it was run: as §1

NCI-H441 = tested on: NCI-H441
How it was run: as §1

NCI-H1975 = tested on: NCI-H1975
How it was run: as §1

LCLC-97TM1 = tested on: LCLC-97TM1
How it was run: as §1

NCI-H1915 = tested on: NCI-H1915
How it was run: as §1

NCI-H596 = tested on: NCI-H596
How it was run: as §1

PC-3 [JPC-3] = tested on: PC-3 [JPC-3]
How it was run: as §1

NCI-H1792 = tested on: NCI-H1792
How it was run: as §1

NCI-H520 = tested on: NCI-H520
How it was run: as §1

`Cc1cn(-c2cc(NC(=O)c3ccc(C)c(Nc4nccc(-c5cccnc5)n4)c3)cc(C(F)(F)F)c2)cn1` [Nilotinib] + C[C@]1(O)C[C@@H](c2nc(-c3ccc4ccc(-c5ccccc5)nc4c3)c3c(N)nccn32)C1 [Linsitinib] (partner 1 µM) was tested, and the relative viability (NCI-H23; first compound 0.001 µM) was 0.556, the relative viability (NCI-H23; first compound 0.003162 µM) was 0.686 and the relative viability (NCI-H23; first compound 0.01 µM) was 0.713. It also gave a relative viability (NCI-H23; first compound 0.03162 µM) of 0.49, a relative viability (NCI-H23; first compound 0.1 µM) of 0.579 and a relative viability (EKVX; first compound 0.001 µM) of 0.866. For the same compound, the relative viability (EKVX; first compound 0.003162 µM) was 1.26, the relative viability (EKVX; first compound 0.01 µM) was 1.62 and the relative viability (EKVX; first compound 0.03162 µM) was 0.955. For the same compound, the relative viability (EKVX; first compound 0.1 µM) was 1.09, the relative viability (NCI-H727; first compound 0.001 µM) was 0.225 and the relative viability (NCI-H727; first compound 0.01 µM) was 0.368. The relative viability (NCI-H727; first compound 0.03162 µM) was 0.275, the relative viability (NCI-H727; first compound 0.1 µM) was 0.263 and the relative viability (NCI-H1666; first compound 0.001 µM) was 0.854. It also gave a relative viability (NCI-H1666; first compound 0.003162 µM) of 0.954, a relative viability (NCI-H1666; first compound 0.01 µM) of 0.74 and a relative viability (NCI-H1666; first compound 0.03162 µM) of 0.911. It also gave a relative viability (NCI-H1666; first compound 0.1 µM) of 0.945, a relative viability (NCI-H647; first compound 0.001 µM) of 1.13 and a relative viability (NCI-H647; first compound 0.003162 µM) of 1.43. It also gave a relative viability (NCI-H647; first compound 0.03162 µM) of 1.07, a relative viability (NCI-H647; first compound 0.1 µM) of 1.02 and a relative viability (NCI-H838; first compound 0.001 µM) of 0.989. It also gave a relative viability (NCI-H838; first compound 0.003162 µM) of 1.37, a relative viability (NCI-H838; first compound 0.01 µM) of 1.39 and a relative viability (NCI-H838; first compound 0.03162 µM) of 0.967. For the same compound, the relative viability (NCI-H838; first compound 0.1 µM) was 0.968, the relative viability (NCI-H1437; first compound 0.001 µM) was 0.879 and the relative viability (NCI-H1437; first compound 0.003162 µM) was 1.19. The relative viability (NCI-H1437; first compound 0.01 µM) was 1.24, the relative viability (NCI-H1437; first compound 0.03162 µM) was 0.747 and the relative viability (NCI-H1437; first compound 0.1 µM) was 0.755. For the same compound, the relative viability (SK-LU-1; first compound 0.001 µM) was 0.916, the relative viability (SK-LU-1; first compound 0.003162 µM) was 1.25 and the relative viability (SK-LU-1; first compound 0.01 µM) was 1.46. It also gave a relative viability (SK-LU-1; first compound 0.03162 µM) of 0.987, a relative viability (SK-LU-1; first compound 0.1 µM) of 0.9 and a relative viability (NCI-H661; first compound 0.001 µM) of 0.508. The relative viability (NCI-H661; first compound 0.003162 µM) was 0.472, the relative viability (NCI-H661; first compound 0.01 µM) was 0.612 and the relative viability (NCI-H661; first compound 0.03162 µM) was 0.501. It also gave a relative viability (NCI-H661; first compound 0.1 µM) of 0.586, a relative viability (NCI-H322M; first compound 0.001 µM) of 0.747 and a relative viability (NCI-H322M; first compound 0.003162 µM) of 1.03. The relative viability (NCI-H322M; first compound 0.03162 µM) was 0.76, the relative viability (NCI-H322M; first compound 0.1 µM) was 0.932 and the relative viability (NCI-H358; first compound 0.001 µM) was 0.67. It also gave a relative viability (NCI-H358; first compound 0.003162 µM) of 0.893, a relative viability (NCI-H358; first compound 0.01 µM) of 0.847 and a relative viability (NCI-H358; first compound 0.03162 µM) of 0.474. The relative viability (NCI-H358; first compound 0.1 µM) was 0.612, the relative viability (NCI-H460; first compound 0.001 µM) was 0.586 and the relative viability (NCI-H460; first compound 0.003162 µM) was 1.1. The relative viability (NCI-H460; first compound 0.01 µM) was 1.75, the relative viability (NCI-H460; first compound 0.03162 µM) was 0.319 and the relative viability (NCI-H460; first compound 0.1 µM) was 0.507. The relative viability (NCI-H441; first compound 0.001 µM) was 0.503, the relative viability (NCI-H441; first compound 0.003162 µM) was 0.588 and the relative viability (NCI-H441; first compound 0.01 µM) was 0.482. It also gave a relative viability (NCI-H441; first compound 0.1 µM) of 0.512, a relative viability (NCI-H1975; first compound 0.001 µM) of 0.913 and a relative viability (NCI-H1975; first compound 0.003162 µM) of 1.23. For the same compound, the relative viability (NCI-H1975; first compound 0.01 µM) was 1.03, the relative viability (NCI-H1975; first compound 0.03162 µM) was 0.688 and the relative viability (NCI-H1975; first compound 0.1 µM) was 0.822. It also gave a relative viability (LCLC-97TM1; first compound 0.001 µM) of 0.198, a relative viability (LCLC-97TM1; first compound 0.003162 µM) of 0.228 and a relative viability (LCLC-97TM1; first compound 0.01 µM) of 0.276. For the same compound, the relative viability (LCLC-97TM1; first compound 0.03162 µM) was 0.245, the relative viability (LCLC-97TM1; first compound 0.1 µM) was 0.247 and the relative viability (NCI-H1915; first compound 0.001 µM) was 1.01. The relative viability (NCI-H1915; first compound 0.003162 µM) was 1.09, the relative viability (NCI-H1915; first compound 0.03162 µM) was 1.06 and the relative viability (NCI-H1915; first compound 0.1 µM) was 1.09. For the same compound, the relative viability (NCI-H596; first compound 0.003162 µM) was 1.26, the relative viability (NCI-H596; first compound 0.01 µM) was 1.28 and the relative viability (NCI-H596; first compound 0.03162 µM) was 0.812. The relative viability (PC-3 [JPC-3]; first compound 0.001 µM) was 0.997, the relative viability (PC-3 [JPC-3]; first compound 0.003162 µM) was 1.1 and the relative viability (PC-3 [JPC-3]; first compound 0.01 µM) was 1.09. It also gave a relative viability (PC-3 [JPC-3]; first compound 0.03162 µM) of 1.01, a relative viability (PC-3 [JPC-3]; first compound 0.1 µM) of 0.927 and a relative viability (NCI-H1792; first compound 0.001 µM) of 0.334. For the same compound, the relative viability (NCI-H1792; first compound 0.01 µM) was 0.583, the relative viability (NCI-H1792; first compound 0.1 µM) was 0.565 and the relative viability (NCI-H520; first compound 0.001 µM) was 0.792. The relative viability (NCI-H520; first compound 0.01 µM) was 1.2, the relative viability (NCI-H520; first compound 0.03162 µM) was 0.91 and the relative viability (NCI-H520; first compound 0.1 µM) was 0.928.
